For test [1], the system named is BG1LucERβc9 cells. Put plainly: Luciferase induction in stably transfected BG1LucERβc9 cells. The format is cell-based, human. The settings on record: for MDL (minimal detection limit) [M], BG1LucERβc9 / EC50: 24 h; for Maximum Induction (RLU), BG1LucERβc9: at 30 µM Genistein, 10 µM Br-ERβ-041, 0.1 nM E2, 1 µM PPT; for EC50: read-out: EC50 [M], BG1LucERβc9.
Test [2] deals with ERβ (Homo sapiens, UniProt Q92731). Put plainly: ER-responsive luciferase reporter. The format is cell-based. As to conditions: SKBR3 cells, ERβ expression plasmid, 24 h, mean ± SD of three experiments.
ERβ, sequence (Q92731 whole entry): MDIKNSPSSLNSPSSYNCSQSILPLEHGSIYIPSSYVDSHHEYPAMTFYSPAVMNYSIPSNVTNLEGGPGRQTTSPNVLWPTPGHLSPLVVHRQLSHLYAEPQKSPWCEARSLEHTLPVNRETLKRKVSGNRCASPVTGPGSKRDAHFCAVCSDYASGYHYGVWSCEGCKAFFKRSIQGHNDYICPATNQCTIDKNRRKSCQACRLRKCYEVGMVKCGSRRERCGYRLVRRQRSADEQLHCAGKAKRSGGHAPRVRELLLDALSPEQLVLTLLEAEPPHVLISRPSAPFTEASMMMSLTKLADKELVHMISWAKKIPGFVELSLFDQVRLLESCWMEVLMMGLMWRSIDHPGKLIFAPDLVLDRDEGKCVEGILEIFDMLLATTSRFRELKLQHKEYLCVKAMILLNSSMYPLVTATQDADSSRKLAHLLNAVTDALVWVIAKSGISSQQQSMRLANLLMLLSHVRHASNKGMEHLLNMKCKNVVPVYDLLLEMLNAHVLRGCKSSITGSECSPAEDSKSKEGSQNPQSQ
Test [3] has as its target T1, ERα (Homo sapiens, UniProt P03372).
T1 sequence (P03372 1-595): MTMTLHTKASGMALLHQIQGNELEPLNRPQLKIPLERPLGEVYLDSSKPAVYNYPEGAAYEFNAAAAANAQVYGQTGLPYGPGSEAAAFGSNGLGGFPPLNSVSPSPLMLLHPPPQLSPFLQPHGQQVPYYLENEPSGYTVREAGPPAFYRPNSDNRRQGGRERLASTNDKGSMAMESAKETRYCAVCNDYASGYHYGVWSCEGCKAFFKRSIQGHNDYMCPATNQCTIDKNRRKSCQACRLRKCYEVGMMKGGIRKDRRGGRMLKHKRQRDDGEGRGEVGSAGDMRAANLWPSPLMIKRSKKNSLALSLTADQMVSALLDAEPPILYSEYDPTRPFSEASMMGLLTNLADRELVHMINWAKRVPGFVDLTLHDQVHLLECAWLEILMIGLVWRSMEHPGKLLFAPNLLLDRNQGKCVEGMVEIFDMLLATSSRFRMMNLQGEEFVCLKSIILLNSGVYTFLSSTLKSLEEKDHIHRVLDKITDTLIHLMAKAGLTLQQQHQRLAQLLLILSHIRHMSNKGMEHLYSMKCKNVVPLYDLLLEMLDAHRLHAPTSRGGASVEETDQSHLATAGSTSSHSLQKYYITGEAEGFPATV
Put plainly: ER-responsive luciferase reporter. As to conditions: read-out: EC50 [M], ERα; SKBR3 cells, ERα expression plasmid, 24 h, mean ± SD of three experiments. The format is cell-based.

Test [4] deals with BG1Luc4E2 cells. Put plainly: Luciferase induction in stably transfected BG1Luc4E2 cells. It counts as cell-based, human. The settings on record: for MDL (minimal detection limit) [M], BG1Luc4E2 / EC50 / luciferase activity in BG1Luc4E2 cells, initial library screen: 24 h; for Maximum Induction (RLU), BG1Luc4E2: at 30 µM Genistein, 10 µM Br-ERβ-041, 0.1 nM E2, 1 µM PPT; for EC50: read-out: EC50 [M], BG1Luc4E2; for luciferase activity in BG1Luc4E2 cells, initial library screen: 10 µM, normalized to 1 nM E2, single screen in triplicate.

The test system of test [5] is BG1LucERβc9 cells. Put plainly: Antagonism of agonist-induced luciferase activity in BG1LucERβc9 cells. The format is cell-based, human. As to conditions: for inhibition of E2-inducible reporter gene expression in BG1LucERβc9 cells: Supplemental Figure S5.
The test system of test [6] is BG1Luc4E2 cells. Put plainly: Antagonism of agonist-induced luciferase activity in BG1Luc4E2 cells. The settings on record: p < 0.05, Student's t-test. The format is cell-based, human.
The mark [7] stands for this setting: mean ± SD of 8–16 experiments, genistein and Br-ERβ-041 at 50% of maximum E2 activity.

Each structure is given as a SMILES string. Like-named read-outs stand apart in the source and are kept apart here.

Take `CCCc1c(-c2ccc(O)cc2)nn(-c2ccc(O)cc2)c1-c1ccc(O)cc1` [PPT, 4,4’,4”-(4-Proply-[1H]-pyrazole-1,3,5-triyl)trisphenol]: in test [1], the “MDL (minimal detection limit) [M], BG1LucERβc9” value turned out to be 1e-10 M and the “Maximum Induction (RLU), BG1LucERβc9” value is 7,017 ± 188 RLU. Moreover, the EC50 in test [1] (setting [7]) was 3.2e-09 M. In test [2], the “EC50 [M], ERβ” value was “No induction”. Also, the EC50 in test [3] was 2.5e-10 M. For the same compound, in test [4], the “MDL (minimal detection limit) [M], BG1Luc4E2” value came out at 1e-10 M and the “Maximum Induction (RLU), BG1Luc4E2” value was 11,422 ± 356 RLU. Besides, in test [4] (setting [7]), the EC50 is 6.7e-10 M.
As for `CC(C)(c1ccc(O)cc1)c1ccc(O)cc1` [Chemical P159, bisphenol A], the “luciferase activity in BG1Luc4E2 cells, initial library screen” value in test [4] was “high activity”.
With `O=c1c(-c2ccc(O)cc2)coc2cc(O)cc(O)c12` [Genistein, genistein], in test [1], the “MDL (minimal detection limit) [M], BG1LucERβc9” value came out at 1e-08 M and the “Maximum Induction (RLU), BG1LucERβc9” value was 8,804 ± 306 RLU. The concentration for a half-maximal effect (EC50) in test [1] (Homo sapiens) stood at 2e-08 M. Besides, in test [4], the “MDL (minimal detection limit) [M], BG1Luc4E2” value was 1e-07 M and the “Maximum Induction (RLU), BG1Luc4E2” value is on record as 17,623 ± 575 RLU. Besides, the “ERα-dependent reporter gene induction in BG1Luc4E2 cells at low concentration” value in test [4] (Br-ERβ-041 31.6 nM, genistein 10 nM, preliminary studies, data not shown) is “failed to induce”. For the same compound, in test [4] (Homo sapiens), the EC50 came out at 1.7e-07 M.
For the compound `CCNc1nc(Cl)nc(NC(C)(C)C#N)n1` [Chemical P12, cyanazine], the “luciferase activity in BG1Luc4E2 cells, initial library screen” value in test [4] is reported as “not inducing significant luciferase activity above background”.
Turning to `CC/C(=C(\c1ccc(O)cc1)c1ccc(OCCN(C)C)cc1)c1ccccc1` [Chemical 4-OHT, 4-hydroxy tamoxifen], the “inhibition of E2-inducible reporter gene expression in BG1LucERβc9 cells” value in test [5] is “inhibit E2-inducible reporter gene expression”.
Regarding `C[C@]12CC[C@@H]3c4ccc(O)cc4CC[C@H]3[C@@H]1CC[C@@H]2O` [Chemical E2, 17β-estradiol], in test [1], the “MDL (minimal detection limit) [M], BG1LucERβc9” value was 1e-12 M and the “Maximum Induction (RLU), BG1LucERβc9” value was 5,236 ± 71 RLU. In addition, the EC50 in test [1] (Homo sapiens) came to 1.3e-11 M. For the same compound, in test [4], the “MDL (minimal detection limit) [M], BG1Luc4E2” value amounted to 3e-12 M and the “Maximum Induction (RLU), BG1Luc4E2” value is 10,594 ± 250 RLU. In test [4] (Homo sapiens), the EC50 was determined as 1.6e-11 M.
Consider `C[C@]12CC[C@@H]3c4ccc(O)cc4C[C@@H](CCCCCCCCC[S+]([O-])CCCC(F)(F)C(F)(F)F)[C@H]3[C@@H]1CC[C@@H]2O` (stereo partly drawn) [fulvestrant, Fulvestrant], for which the “inhibition of E2-inducible reporter gene expression in BG1LucERβc9 cells” value in test [5] was “inhibit E2-inducible reporter gene expression”. For the same compound, the “concentration-dependent antagonism of E2-induced luciferase activity, BG1LucERβc9 vs BG1Luc4E2 cells” value in test [5] (comparison of both cell lines) is “comparable”. Besides, the “antagonism of Br-ERβ-041 induced activity in BG1Luc4E2 cells versus BG1LucERβc9 cells” value in test [6] was “significantly more potent antagonist”.

The values above are taken from article PMC4772679 (Environmental toxicology and chemistry / SETAC, 2015).
